{"source": "patent US11926615B1", "about": "“2-alkoxy[4,3:6,4-terpyridine]-3-carbonitriles as antimicrobial compounds” (KING FAISAL UNIVERSITY, priority 2023, dated 2024)", "assay_type_in_all_cases": "cell-based", "key": {"Escherichia coli": {"system": "Escherichia coli", "experiment": "Agar plate disc-diffusion, antibacterial inhibition zone", "conditions": "DMSO control zone subtracted; for inhibition zone, Escherichia coli, A: A = concentration of comp. = 10,000 μL; for inhibition zone, Escherichia coli, B: B = concentration of comp. = 30.000 μL; for inhibition zone, Escherichia coli, C: C = concentration of comp. = 50,000 μL", "protocol": "(§1) The agar plate disc-diffusion method was applied. Sterilized filter papers (6 mm in diameter) were wetted with 10 μL of a solution of 2-ethoxy[4,3:6,4-terpyridine]-3-carbonitrile (4) and 2-methoxy[4,3:6,4-terpyridine]-3-carbonitrile (5) to be tested, containing […], and the discs were allowed to air dry. The discs were then placed onto the surface of agar plates (nutrient agar for bacteria and Sabouraud's dextrose agar for fungi) seeded with the test organism. Each plate contained 15 mL of the agar medium, previously seeded with 0.2 mL of the broth culture of each organism pregrown for 18 hours. The plates were incubated at 37° C. for 48 h, and 72 h for fungi. The inhibition zones were measured in mm. Discs impregnated with DMSO were used as a control, and its inhibition zone was subtracted from the tested compound actual inhibition zone."}, "Staphylococcus aureus": {"system": "Staphylococcus aureus", "experiment": "Agar plate disc-diffusion, antibacterial inhibition zone", "conditions": "DMSO control zone subtracted; for inhibition zone, Staphylococcus aureus, A: A = concentration of comp. = 10,000 μL; for inhibition zone, Staphylococcus aureus, B: B = concentration of comp. = 30.000 μL; for inhibition zone, Staphylococcus aureus, C: C = concentration of comp. = 50,000 μL", "protocol": "as §1"}, "Pseudomonas aeruginosa": {"system": "Pseudomonas aeruginosa", "experiment": "Agar plate disc-diffusion, antibacterial inhibition zone", "conditions": "DMSO control zone subtracted; for inhibition zone, Pseudomonas aeruginosa, A: A = concentration of comp. = 10,000 μL; for inhibition zone, Pseudomonas aeruginosa, B: B = concentration of comp. = 30.000 μL; for inhibition zone, Pseudomonas aeruginosa, C: C = concentration of comp. = 50,000 μL", "protocol": "as §1"}, "Bacillus Cereus": {"system": "Bacillus Cereus", "experiment": "Agar plate disc-diffusion, antibacterial inhibition zone", "conditions": "DMSO control zone subtracted; for inhibition zone, Bacillus Cereus, A: A = concentration of comp. = 10,000 μL; for inhibition zone, Bacillus Cereus, B: B = concentration of comp. = 30.000 μL; for inhibition zone, Bacillus Cereus, C: C = concentration of comp. = 50,000 μL", "protocol": "as §1"}, "[1]": {"system": "Chrysosporium keratinophilum", "experiment": "Agar plate disc-diffusion, antifungal inhibition zone", "conditions": "DMSO control zone subtracted; for inhibition zone, Chrysosporium keratinophilum, A: A = concentration of comp. = 10,000 μL; for inhibition zone, Chrysosporium keratinophilum, B: B = concentration of comp. = 30.000 μL; for inhibition zone, Chrysosporium keratinophilum, C: C = concentration of comp. = 50,000 μL", "protocol": "as §1"}, "Aspergillus flavus": {"system": "Aspergillus flavus", "experiment": "Agar plate disc-diffusion, antifungal inhibition zone", "conditions": "DMSO control zone subtracted; for inhibition zone, Aspergillus flavus, A: A = concentration of comp. = 10,000 μL; for inhibition zone, Aspergillus flavus, B: B = concentration of comp. = 30.000 μL; for inhibition zone, Aspergillus flavus, C: C = concentration of comp. = 50,000 μL", "protocol": "as §1"}}, "data": [{"compound": "COc1nc(-c2ccncc2)cc(-c2cccnc2)c1C#N", "note": "[Compound 5, 2-methoxy[4,3:6,4-terpyridine]-3-carbonitrile]", "values": [{"measurement": "inhibition zone, Escherichia coli, A", "setting": "Escherichia coli", "result": 32, "unit": "mm"}, {"measurement": "inhibition zone, Escherichia coli, B", "setting": "Escherichia coli", "result": 39, "unit": "mm"}, {"measurement": "inhibition zone, Escherichia coli, C", "setting": "Escherichia coli", "result": 42, "unit": "mm"}, {"measurement": "inhibition zone, Staphylococcus aureus, A", "setting": "Staphylococcus aureus", "result": 23, "unit": "mm"}, {"measurement": "inhibition zone, Staphylococcus aureus, B", "setting": "Staphylococcus aureus", "result": 28, "unit": "mm"}, {"measurement": "inhibition zone, Staphylococcus aureus, C", "setting": "Staphylococcus aureus", "result": 37, "unit": "mm"}, {"measurement": "inhibition zone, Pseudomonas aeruginosa, A", "setting": "Pseudomonas aeruginosa", "result": 26, "unit": "mm"}, {"measurement": "inhibition zone, Pseudomonas aeruginosa, B", "setting": "Pseudomonas aeruginosa", "result": 32, "unit": "mm"}, {"measurement": "inhibition zone, Pseudomonas aeruginosa, C", "setting": "Pseudomonas aeruginosa", "result": 40, "unit": "mm"}, {"measurement": "inhibition zone, Bacillus Cereus, A", "setting": "Bacillus Cereus", "result": 32, "unit": "mm"}, {"measurement": "inhibition zone, Bacillus Cereus, B", "setting": "Bacillus Cereus", "result": 36, "unit": "mm"}, {"measurement": "inhibition zone, Bacillus Cereus, C", "setting": "Bacillus Cereus", "result": 41, "unit": "mm"}, {"measurement": "inhibition zone, Chrysosporium keratinophilum, A", "setting": "[1]", "result": 27, "unit": "mm"}, {"measurement": "inhibition zone, Chrysosporium keratinophilum, B", "setting": "[1]", "result": 30, "unit": "mm"}, {"measurement": "inhibition zone, Chrysosporium keratinophilum, C", "setting": "[1]", "result": 46, "unit": "mm"}, {"measurement": "inhibition zone, Aspergillus flavus, A", "setting": "Aspergillus flavus", "result": 19, "unit": "mm"}, {"measurement": "inhibition zone, Aspergillus flavus, B", "setting": "Aspergillus flavus", "result": 24, "unit": "mm"}, {"measurement": "inhibition zone, Aspergillus flavus, C", "setting": "Aspergillus flavus", "result": 30, "unit": "mm"}]}, {"compound": "CCOc1nc(-c2ccncc2)cc(-c2cccnc2)c1C#N", "note": "[Compound 4, 2-ethoxy[4,3:6,4-terpyridine]-3-carbonitrile]", "values": [{"measurement": "inhibition zone, Escherichia coli, A", "setting": "Escherichia coli", "result": 33, "unit": "mm"}, {"measurement": "inhibition zone, Escherichia coli, B", "setting": "Escherichia coli", "result": 41, "unit": "mm"}, {"measurement": "inhibition zone, Escherichia coli, C", "setting": "Escherichia coli", "result": 49, "unit": "mm"}, {"measurement": "inhibition zone, Staphylococcus aureus, A", "setting": "Staphylococcus aureus", "result": 19, "unit": "mm"}, {"measurement": "inhibition zone, Staphylococcus aureus, B", "setting": "Staphylococcus aureus", "result": 23, "unit": "mm"}, {"measurement": "inhibition zone, Staphylococcus aureus, C", "setting": "Staphylococcus aureus", "result": 33, "unit": "mm"}, {"measurement": "inhibition zone, Pseudomonas aeruginosa, A", "setting": "Pseudomonas aeruginosa", "result": 28, "unit": "mm"}, {"measurement": "inhibition zone, Pseudomonas aeruginosa, B", "setting": "Pseudomonas aeruginosa", "result": 34, "unit": "mm"}, {"measurement": "inhibition zone, Pseudomonas aeruginosa, C", "setting": "Pseudomonas aeruginosa", "result": 41, "unit": "mm"}, {"measurement": "inhibition zone, Bacillus Cereus, A", "setting": "Bacillus Cereus", "result": 27, "unit": "mm"}, {"measurement": "inhibition zone, Bacillus Cereus, B", "setting": "Bacillus Cereus", "result": 34, "unit": "mm"}, {"measurement": "inhibition zone, Bacillus Cereus, C", "setting": "Bacillus Cereus", "result": 39, "unit": "mm"}, {"measurement": "inhibition zone, Chrysosporium keratinophilum, A", "setting": "[1]", "result": 26, "unit": "mm"}, {"measurement": "inhibition zone, Chrysosporium keratinophilum, B", "setting": "[1]", "result": 31, "unit": "mm"}, {"measurement": "inhibition zone, Chrysosporium keratinophilum, C", "setting": "[1]", "result": 39, "unit": "mm"}, {"measurement": "inhibition zone, Aspergillus flavus, A", "setting": "Aspergillus flavus", "result": 30, "unit": "mm"}, {"measurement": "inhibition zone, Aspergillus flavus, B", "setting": "Aspergillus flavus", "result": 34, "unit": "mm"}, {"measurement": "inhibition zone, Aspergillus flavus, C", "setting": "Aspergillus flavus", "result": 41, "unit": "mm"}]}]}
